Results as given in US20240016901A1, “COMPOSITIONS AND METHODS FOR PREVENTING AND TREATING SARS-COV-2 INFECTION” (priority 2020, published 2024).
Where two headings read alike, the source gives them in different places.

Columns and labels:
SARS-CoV-2 [1] = test: microbe, parasite or virus in culture; assay type: cell-based; conditions: for IC50: read-out: IC50 against SARS-CoV-2 infection
SigmaR2 = conditions: literature value (Diaz et al. 2012); cited from earlier work
SARS-CoV-2 [2] = conditions: Gordon et al. 2020; cited from earlier work
SigmaR1 = conditions: read-out: SigmaR1 IC50; literature values (Moebius et al. 1997; Diaz et al. 2012); cited from earlier work
[3] = Severe acute respiratory syndrome coronavirus 2, Huh-7
[4] = Severe acute respiratory syndrome coronavirus 2, Huh-7 cells, MOI 0.2, 10-point two-fold dilution dose response in triplicate
[5] = Severe acute respiratory syndrome coronavirus 2, Huh-7 cells

For `COc1cc(Nc2c(C#N)cnc3cc(OCCCN4CCN(C)CC4)c(OC)cc23)c(Cl)cc1Cl` [Bosutinib], the EC50 (SARS-CoV-2 [1]; [3]) was 28 nM.

With `C[C@@](Cc1ccc(O)c(O)c1)(NN)C(=O)O` [Carbidopa] the “exacerbation of SARS-CoV-2 infection” value (SARS-CoV-2 [1]; Huh-7 cells) was “exacerbate SARS-CoV-2 infection”.

Work on `CC(C)N=c1cc2n(-c3ccc(Cl)cc3)c3ccccc3nc-2cc1Nc1ccc(Cl)cc1` [Clofazamine] yielded an EC50 (SARS-CoV-2 [1]) of 105 nM.

`C=C1[C@H](CO)[C@@H](O)C[C@@H]1n1cnc2c(=O)[nH]c(N)nc21` [Entecavir] gave an EC50 (SARS-CoV-2 [1]; [4]) of 201 nM.

`Cc1cnc(Nc2ccc(OCCN3CCCC3)cc2)nc1Nc1cccc(S(=O)(=O)NC(C)(C)C)c1` [Fedratinib] showed an EC50 (SARS-CoV-2 [1]; [4]) of 25 nM and an IC50 (SARS-CoV-2 [1]; [5]) of 25 nM.

Work on `CCc1nc(C(N)=O)c(Nc2ccc(N3CCC(N4CCN(C)CC4)CC3)c(OC)c2)nc1NC1CCOCC1` [Gilteritinib] yielded an EC50 (SARS-CoV-2 [1]; [4]) of 207 nM.

Work on `O=C(NC1CCN(CCCCC2(C(=O)NCC(F)(F)F)c3ccccc3-c3ccccc32)CC1)c1ccccc1-c1ccc(C(F)(F)F)cc1` [Lomitapide] yielded an EC50 (SARS-CoV-2 [1]; [4]) of 1580 nM.

For `CCN(CC)CCNC(=O)c1cc(Cl)c(N)cc1OC` [Metoclopramide], the “antiviral activity against SARS-CoV-2 (in words)” value (shortened to “antiviral activity … (in words)”) (SARS-CoV-2 [1]; Huh-7 cells) was “dose dependent antiviral activity” and the EC50 (SARS-CoV-2 [1]; [4]) was 469 nM.

With `O=C(Nc1ccc([N+](=O)[O-])cc1Cl)c1cc(Cl)ccc1O` [Niclosamide] the EC50 (SARS-CoV-2 [1]; [4]) was 142 nM.

For `CCC(CC)COC(=O)[C@H](C)N[P@](=O)(OC[C@H]1O[C@@](C#N)(c2ccc3c(N)ncnn23)[C@H](O)[C@@H]1O)Oc1ccccc1` [Remdesivir], the EC50 (SARS-CoV-2 [1]; [3]) was 95 nM.

For `Cc1cc(OCCN2CCOCC2)nn1-c1ccc2ccccc2c1` [S1RA, 4-{2-[5-methyl-1-(naphthalen-2-yl)-1H-pyrazol-3-yloxy]ethyl}morpholine], the EC50 (SARS-CoV-2 [1]; [4]) was 222 nM, the IC50 (SARS-CoV-2 [1]; [5]) was 222 nM and the cell toxicity (Huh-7 cells) was “limited cell toxicity”. The IC50 (SigmaR2) was > 1000 nM, the “antiviral activity in Vero-E6 cells” value (SARS-CoV-2 [2]) was “not observed” and the IC50 (SigmaR1) was 17 nM.

Work on `Nc1nc2nc[nH]c2c(=S)[nH]1` [Thioguanine] yielded an EC50 (SARS-CoV-2 [1]; [4]) of 232 nM.

In the case of `COc1ccc(CCN(C)CCCC(C#N)(c2ccc(OC)c(OC)c2)C(C)C)cc1OC` (stereo not shown) [Verapamil], the EC50 (SARS-CoV-2 [1]; [3]) is reported as 458 nM.

With `CC(NC(=O)[C@H](Cc1ccccc1)NC(=O)OCc1ccccc1)C(=O)CF` (stereo partly shown) [Z-FA-FMK] the EC50 (SARS-CoV-2 [1]) was 107 nM and the “antiviral activity … (in words)” value (SARS-CoV-2 [1]; Huh-7 cells) was “potent antiviral activity”.

For `CC(C)(C#N)c1cc(Cn2cncn2)cc(C(C)(C)C#N)c1` [anastrozole], the “exacerbation of SARS-CoV-2 infection” value (SARS-CoV-2 [1]; Huh-7 cells) was “exacerbate SARS-CoV-2 infection”.

With `C[C@@H]1CCN(C(=O)CC#N)C[C@@H]1N(C)c1ncnc2[nH]ccc12` [tofacitinib] the “antiviral activity … (in words)” value (SARS-CoV-2 [1]; Huh-7 cells) was “the latter was the only one active”.

In the case of “transferrin: the protein transferrin (Sigma Aldrich, T2036)”, the “anti-SARS-CoV-2 activity, percentage of infected Huh-7 cells” value (SARS-CoV-2 [1]; Huh-7 cells, protein at 2.3 μM, FIG. 6E) is reported as “devoid of any anti-SARS-CoV-2 activity”.
